This assay concerns the target T1, GlyT1 (Homo sapiens, UniProt P48067).
T1 construct: expressed in transfected cells
T1 sequence (P48067 1-706): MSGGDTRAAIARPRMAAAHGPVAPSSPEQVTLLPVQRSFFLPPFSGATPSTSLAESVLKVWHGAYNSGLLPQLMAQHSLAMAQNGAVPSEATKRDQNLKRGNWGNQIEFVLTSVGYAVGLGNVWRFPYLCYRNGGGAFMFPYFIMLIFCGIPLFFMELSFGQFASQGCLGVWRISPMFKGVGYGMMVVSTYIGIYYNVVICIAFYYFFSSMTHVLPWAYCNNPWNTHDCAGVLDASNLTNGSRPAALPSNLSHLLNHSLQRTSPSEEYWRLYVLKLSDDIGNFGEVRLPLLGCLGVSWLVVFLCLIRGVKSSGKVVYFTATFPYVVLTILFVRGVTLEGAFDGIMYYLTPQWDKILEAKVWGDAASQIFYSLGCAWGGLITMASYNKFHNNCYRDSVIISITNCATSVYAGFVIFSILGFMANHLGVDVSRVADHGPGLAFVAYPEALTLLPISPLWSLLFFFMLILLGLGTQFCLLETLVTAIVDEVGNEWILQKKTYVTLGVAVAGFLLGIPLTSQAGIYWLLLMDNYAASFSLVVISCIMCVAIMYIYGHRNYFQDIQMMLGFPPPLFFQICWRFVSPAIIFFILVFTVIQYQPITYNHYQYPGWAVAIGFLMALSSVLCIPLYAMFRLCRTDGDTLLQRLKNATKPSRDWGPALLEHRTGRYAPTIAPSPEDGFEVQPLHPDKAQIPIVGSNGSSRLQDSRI
Briefly: Glycine Transporter 1 (GlyT1) uptake assay, scintillation proximity assay of [14C]-glycine uptake. Type of assay: cell-based. As to conditions: [14C]-glycine uptake; read-out: GlyT1 (pIC50) (converted). Put shortly: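 IC50 values were derived by four-parameter logistic fitting of counts. The 2× compound solutions were made by 1:100 dilution into HBSS of DMSO serial dilutions.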
For orientation: Scintillation proximity formats need no separation of bound from free tracer.

The values below come from patent US10040759B2, “Substituted azetidinyl compounds as GlyT1 inhibitors” (DART NEUROSCIENCE (CAYMAN) LTD., priority 2014, dated 2018).

In the case of `COc1c(C#N)ccc(O[C@@H](C)C(F)(F)F)c1C(=O)N1CC(c2ccc(C(F)(F)F)nc2)C1` [Example 31, 2-Methoxy-3-({3-[6-(trifluoromethyl)pyridin-3-yl]azetidin-1-yl}carbonyl)-4-{[(2S)-1,1,1-trifluoropropan-2-yl]oxy}benzonitrile], the IC50 was 100 to 1000 nM.
Take `COc1c(S(C)(=O)=O)ccc(O[C@H](C)C(F)(F)F)c1C(=O)N1CC(c2ccc(C(F)F)cn2)C1` [Example 185, 5-(Difluoromethyl)-2-[1-(3-methanesulfonyl-2-methoxy-6-{[(2R)-1,1,1-trifluoropropan-2-yl]oxy}benzoyl)azetidin-3-yl]pyridine]: the IC50 is 100 to 1000 nM.
Regarding `COc1c(C#N)ccc(O[C@@H](C)C(F)(F)F)c1C(=O)N1CC(c2ccc(C(F)(F)F)cn2)C1` [Example 34, 2-Methoxy-3-({3-[5-(trifluoromethyl)pyridin-2-yl]azetidin-1-yl}carbonyl)-4-{[(2S)-1,1,1-trifluoropropan-2-yl]oxy}benzonitrile], the IC50 was 100 to 1000 nM.
Turning to `CCS(=O)(=O)c1ccc(OC(C)C)c(C(=O)N2CC(Oc3cc(F)c(F)cc3F)C2)c1OC` [Example 245, 1-[3-(Ethanesulfonyl)-2-methoxy-6-(propan-2-yloxy)benzoyl]-3-(2,4,5-trifluorophenoxy)azetidine], the IC50 is less than 100 nM.
On to `COc1c(C#N)ccc(OC(C)C(F)(F)F)c1C(=O)N1CC(O)(c2ccc(C(F)(F)F)cc2)C1` (stereo not shown) [Example 64, 3-({3-Hydroxy-3-[4-(trifluoromethyl)phenyl]azetidin-1-yl}carbonyl)-2-methoxy-4-[(1,1,1-trifluoropropan-2-yl)oxy]benzonitrile], for which the IC50 is 100 to 1000 nM.
The result for `COc1cc(C2CN(C(=O)c3c(O[C@H](C)C(F)(F)F)ccc(C#N)c3OC)C2)ccc1C#N` [Example 177, 3-[3-(4-Cyano-3-methoxyphenyl)azetidine-1-carbonyl]-2-methoxy-4-{[(2R)-1,1,1-trifluoropropan-2-yl]oxy}benzonitrile] reads 100 to 1000 nM.
Regarding `COc1c(C#N)ccc(O[C@@H](C)C(F)(F)F)c1C(=O)N1CC(c2ncc(F)cc2F)C1` [Example 121, 3-{[3-(3,5-Difluoropyridin-2-yl)azetidin-1-yl]carbonyl}-2-methoxy-4-{[(2S)-1,1,1-trifluoropropan-2-yl]oxy}benzonitrile], the IC50 was less than 100 nM.
The figure for `COc1c(S(C)(=O)=O)ccc(OC(C)C(F)(F)F)c1C(=O)N1CC(Oc2ccc(F)cc2)C1` (stereo not shown) [Example 16, 3-(4-Fluorophenoxy)-1-({3-methanesulfonyl-2-methoxy-6-[(1,1,1-trifluoropropan-2-yl)oxy]phenyl}carbonyl)azetidine] is less than 100 nM; for `COc1c(C#N)ccc(O[C@@H](C)C(F)(F)F)c1C(=O)N1CC(c2ccc(C3CCOCC3)c(F)c2)C1` [Example 163, 3-{3-[3-Fluoro-4-(oxan-4-yl)phenyl]azetidine-1-carbonyl}-2-methoxy-4-{[(2S)-1,1,1-trifluoropropan-2-yl]oxy}benzonitrile] it is less than 100 nM.
As for `CC(Oc1ccc(C#N)c(Cl)c1C(=O)N1CC(c2ccccn2)C1)C(F)(F)F` (stereo not shown) [Example 88, 2-Chloro-3-{[3-(pyridin-2-yl)azetidin-1-yl]carbonyl}-4-[(1,1,1-trifluoropropan-2-yl)oxy]benzonitrile], the IC50 is 100 to 1000 nM.
The result for `COc1c(C#N)ccc(O[C@@H](C)C(F)(F)F)c1C(=O)N1CC(c2ccc(F)cc2)C1` [Example 52, 3-[3-(4-Fluorophenyl)azetidine-1-carbonyl]-2-methoxy-4-{[(2S)-1,1,1-trifluoropropan-2-yl]oxy}benzonitrile] reads 100 to 1000 nM; that for `COc1c(S(C)(=O)=O)ccc(O[C@@H](C)C(F)(F)F)c1C(=O)N1CC(Oc2ccccc2C)C1` [Example 48, 1-(3-Methanesulfonyl-2-methoxy-6-{[(2S)-1,1,1-trifluoropropan-2-yl]oxy}benzoyl)-3-(2-methylphenoxy)azetidine], 1000 to 10000 nM.
As to `COc1c(S(C)(=O)=O)ccc(O[C@@H](C)C(F)(F)F)c1C(=O)N1CC(c2ccc(C(F)F)cc2Cl)C1` [Example 147, 3-[2-Chloro-4-(difluoromethyl)phenyl]-1-(3-methanesulfonyl-2-methoxy-6-{[(2S)-1,1,1-trifluoropropan-2-yl]oxy}benzoyl)azetidine], the IC50 is less than 100 nM.
The figure for `COc1c(C#N)ccc(C2(F)CCOCC2)c1C(=O)N1CC(c2ncc(C(F)(F)F)cc2Cl)C1` [Example 117, 3-({3-[3-Chloro-5-(trifluoromethyl)pyridin-2-yl]azetidin-1-yl}carbonyl)-4-(4-fluorooxan-4-yl)-2-methoxybenzonitrile] is less than 100 nM.
The result for `COc1c(C#N)ccc(C2CCCC2)c1C(=O)N1CC(c2ccc(C(F)(F)F)cn2)C1` [Example 12, 4-Cyclopentyl-2-methoxy-3-{3-[5-(trifluoromethyl)pyridin-2-yl]azetidine-1-carbonyl}benzonitrile] reads less than 100 nM; that for `COc1c(S(C)(=O)=O)ccc(OC(C)C)c1C(=O)N1CC(c2ncc(C(F)(F)F)cc2F)C1` [Example 215, 3-Fluoro-2-{1-[3-methanesulfonyl-2-methoxy-6-(propan-2-yloxy)benzoyl]azetidin-3-yl}-5-(trifluoromethyl)pyridine], 100 to 1000 nM.
The result for `COc1c(S(C)(=O)=O)ccc(O[C@@H](C)C(F)(F)F)c1C(=O)N1CC(c2ccc(F)cc2Cl)C1` [Example 145, 3-(2-Chloro-4-fluorophenyl)-1-(3-methanesulfonyl-2-methoxy-6-{[(2S)-1,1,1-trifluoropropan-2-yl]oxy}benzoyl)azetidine] reads 100 to 1000 nM; that for `COc1c(C#N)ccc(O[C@@H](C)C(F)(F)F)c1C(=O)N1CC(Nc2ncc(C(F)(F)F)cc2F)C1` [Example 14, 3-[(3-{[3-Fluoro-5-(trifluoromethyl)pyridin-2-yl]amino}azetidin-1-yl)carbonyl]-2-methoxy-4-{[(2S)-1,1,1-trifluoropropan-2-yl]oxy}benzonitrile], 100 to 1000 nM; that for `COc1c(S(C)(=O)=O)ccc(O[C@H](C)C(F)(F)F)c1C(=O)N1CC(Cc2ccc(F)cc2)C1` [Example 39, 3-[(4-Fluorophenyl)methyl]-1-(3-methanesulfonyl-2-methoxy-6-{[(2R)-1,1,1-trifluoropropan-2-yl]oxy}benzoyl)azetidine], 100 to 1000 nM.
For `COc1c(C#N)ccc(C2(F)CCOCC2)c1C(=O)N1CC(c2ccc(Cl)cc2)C1` [Example 20, 3-{[3-(4-Chlorophenyl)azetidin-1-yl]carbonyl}-4-(4-fluorooxan-4-yl)-2-methoxybenzonitrile], the IC50 was less than 100 nM.
As for `C[C@H](Oc1ccc(C#N)c(Cl)c1C(=O)N1CC(c2ccc(C(F)(F)F)cn2)C1)C(F)(F)F` [Example 120, 2-Chloro-3-({3-[5-(trifluoromethyl)pyridin-2-yl]azetidin-1-yl}carbonyl)-4-{[(2S)-1,1,1-trifluoropropan-2-yl]oxy}benzonitrile], the IC50 was less than 100 nM.
The figure for `CCOc1c(C#N)ccc(C2CN(C(=O)c3c(O[C@@H](C)C(F)(F)F)ccc(C#N)c3OC)C2)c1Cl` [Example 176, 3-Chloro-4-[1-(3-cyano-2-methoxy-6-{[(2S)-1,1,1-trifluoropropan-2-yl]oxy}benzoyl)azetidin-3-yl]-2-ethoxybenzonitrile] is less than 100 nM.
